Experimental data published in paper PMC12420824, “Discovery of a selective alpha-kinase 1 inhibitor for the rare genetic disease ROSAH syndrome” (Nature Communications, 2025).
“And” between values parts separate entries of the source, which are not always exact repeats. Equal entries are not always repeated.

What was measured:
[1] = 28 day GLP toxicology study; type: in vivo; conditions: rats
[2] = biological target: DRAK1/STK17A (Homo sapiens, UniProt Q9UEE5); test: HotSpot kinase assay; conditions: read-out: % Enzyme Activity (relative to DMSO control), 10 uM
Chain of DRAK1/STK17A (Q9UEE5 whole entry): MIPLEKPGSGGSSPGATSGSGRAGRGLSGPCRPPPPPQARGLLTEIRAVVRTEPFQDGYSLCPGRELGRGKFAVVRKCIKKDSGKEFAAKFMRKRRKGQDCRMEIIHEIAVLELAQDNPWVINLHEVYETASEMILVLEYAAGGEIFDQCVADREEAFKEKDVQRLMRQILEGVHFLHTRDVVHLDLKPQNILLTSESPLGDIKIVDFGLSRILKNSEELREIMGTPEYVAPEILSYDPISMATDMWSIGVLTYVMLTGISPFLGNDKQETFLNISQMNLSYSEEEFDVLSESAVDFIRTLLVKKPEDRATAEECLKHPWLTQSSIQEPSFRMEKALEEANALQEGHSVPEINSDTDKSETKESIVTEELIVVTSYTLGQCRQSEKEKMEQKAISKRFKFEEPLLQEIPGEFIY

[3] = biological target: TAOK3/JIK (Homo sapiens, UniProt Q9H2K8); test: HotSpot kinase assay; conditions: read-out: % Enzyme Activity (relative to DMSO control), 10 uM
[4] = biological target: DCAMKL2 (Homo sapiens, UniProt Q8N568); test: HotSpot kinase assay; conditions: read-out: % Enzyme Activity (relative to DMSO control), 10 uM
[5] = biological target: RSK1 (Homo sapiens, UniProt Q15418); test: HotSpot kinase assay; conditions: read-out: % Enzyme Activity (relative to DMSO control), 10 uM
[6] = biological target: TXK (Homo sapiens, UniProt P42681); test: HotSpot kinase assay; conditions: read-out: % Enzyme Activity (relative to DMSO control), 10 uM
From the text: (§1) Additionally, a 10-dose dilution series of staurosporine and other enzyme-appropriate compounds were included as positive control inhibitors.

[7] = biological target: DMPK2 (Homo sapiens, UniProt Q6DT37); test: HotSpot kinase assay; conditions: read-out: % Enzyme Activity (relative to DMSO control), 10 uM
Chain of DMPK2 (Q6DT37 whole entry): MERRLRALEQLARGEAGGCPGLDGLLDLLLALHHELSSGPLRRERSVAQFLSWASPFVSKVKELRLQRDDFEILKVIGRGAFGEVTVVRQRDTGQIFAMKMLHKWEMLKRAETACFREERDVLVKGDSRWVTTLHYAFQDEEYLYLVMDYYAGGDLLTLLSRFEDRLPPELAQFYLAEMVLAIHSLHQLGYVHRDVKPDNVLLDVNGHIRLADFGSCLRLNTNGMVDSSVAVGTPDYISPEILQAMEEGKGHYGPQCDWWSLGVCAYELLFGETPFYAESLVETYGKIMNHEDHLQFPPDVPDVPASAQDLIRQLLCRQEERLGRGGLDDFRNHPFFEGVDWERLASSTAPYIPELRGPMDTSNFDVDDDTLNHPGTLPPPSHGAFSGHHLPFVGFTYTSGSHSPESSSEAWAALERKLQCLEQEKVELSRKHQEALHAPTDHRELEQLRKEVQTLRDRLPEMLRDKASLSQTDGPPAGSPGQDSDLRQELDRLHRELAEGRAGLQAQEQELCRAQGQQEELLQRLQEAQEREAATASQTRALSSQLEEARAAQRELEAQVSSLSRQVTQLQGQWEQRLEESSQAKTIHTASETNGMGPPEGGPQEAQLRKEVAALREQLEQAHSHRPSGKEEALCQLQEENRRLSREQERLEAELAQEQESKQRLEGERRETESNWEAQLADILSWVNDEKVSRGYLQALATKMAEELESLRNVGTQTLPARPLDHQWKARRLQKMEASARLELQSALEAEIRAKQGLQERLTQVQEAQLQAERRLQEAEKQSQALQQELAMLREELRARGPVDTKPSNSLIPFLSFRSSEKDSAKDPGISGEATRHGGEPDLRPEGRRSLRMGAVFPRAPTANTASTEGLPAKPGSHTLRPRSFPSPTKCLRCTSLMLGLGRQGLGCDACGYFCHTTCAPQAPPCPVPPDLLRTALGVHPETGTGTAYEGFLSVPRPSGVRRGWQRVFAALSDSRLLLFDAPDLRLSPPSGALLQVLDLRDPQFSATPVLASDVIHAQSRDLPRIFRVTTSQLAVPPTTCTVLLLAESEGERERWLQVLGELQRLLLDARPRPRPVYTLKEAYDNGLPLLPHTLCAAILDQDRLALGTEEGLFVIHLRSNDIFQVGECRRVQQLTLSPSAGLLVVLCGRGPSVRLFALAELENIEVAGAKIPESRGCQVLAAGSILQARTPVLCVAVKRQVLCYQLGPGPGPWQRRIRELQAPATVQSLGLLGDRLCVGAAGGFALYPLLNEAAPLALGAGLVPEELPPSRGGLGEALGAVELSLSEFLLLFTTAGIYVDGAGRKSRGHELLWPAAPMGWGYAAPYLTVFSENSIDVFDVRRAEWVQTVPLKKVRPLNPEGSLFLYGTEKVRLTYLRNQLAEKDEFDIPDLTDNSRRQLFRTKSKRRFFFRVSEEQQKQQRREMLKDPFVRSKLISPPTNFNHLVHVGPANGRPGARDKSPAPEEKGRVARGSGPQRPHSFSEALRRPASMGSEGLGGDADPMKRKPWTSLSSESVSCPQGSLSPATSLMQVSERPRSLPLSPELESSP
From the text: as §1

[8] = biological target: MYO3A (Homo sapiens, UniProt Q8NEV4); test: HotSpot kinase assay; conditions: read-out: % Enzyme Activity (relative to DMSO control), 10 uM
From the text: as §1

[9] = biological target: NEK4 (Homo sapiens, UniProt P51957); test: HotSpot kinase assay; conditions: read-out: % Enzyme Activity (relative to DMSO control), 10 uM
Chain of NEK4 (P51957 whole entry): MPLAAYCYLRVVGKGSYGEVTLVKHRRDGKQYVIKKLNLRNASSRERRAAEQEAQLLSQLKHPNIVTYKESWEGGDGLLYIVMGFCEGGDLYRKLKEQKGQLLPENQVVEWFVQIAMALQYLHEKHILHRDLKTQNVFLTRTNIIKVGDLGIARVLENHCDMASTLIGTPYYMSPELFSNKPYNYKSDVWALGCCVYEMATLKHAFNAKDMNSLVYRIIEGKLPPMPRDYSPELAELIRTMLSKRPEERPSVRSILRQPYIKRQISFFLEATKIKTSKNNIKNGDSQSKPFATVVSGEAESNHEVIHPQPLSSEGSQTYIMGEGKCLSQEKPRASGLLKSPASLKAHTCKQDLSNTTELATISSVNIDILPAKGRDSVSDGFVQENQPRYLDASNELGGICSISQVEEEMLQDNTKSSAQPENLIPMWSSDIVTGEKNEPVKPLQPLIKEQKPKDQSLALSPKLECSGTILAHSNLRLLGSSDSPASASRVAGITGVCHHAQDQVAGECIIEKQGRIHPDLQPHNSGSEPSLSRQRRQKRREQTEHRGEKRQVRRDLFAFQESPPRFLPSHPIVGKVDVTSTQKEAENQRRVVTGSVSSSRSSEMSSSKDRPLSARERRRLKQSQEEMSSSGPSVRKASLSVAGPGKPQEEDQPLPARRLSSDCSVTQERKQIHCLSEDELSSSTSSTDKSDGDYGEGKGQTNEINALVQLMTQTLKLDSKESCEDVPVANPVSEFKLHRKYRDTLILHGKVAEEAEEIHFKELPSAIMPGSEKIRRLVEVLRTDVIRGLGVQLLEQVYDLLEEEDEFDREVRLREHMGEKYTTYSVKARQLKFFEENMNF

[10] = biological target: GLK/MAP4K3 (Homo sapiens, UniProt Q8IVH8); test: HotSpot kinase assay; conditions: read-out: % Enzyme Activity (relative to DMSO control), 10 uM
[11] = biological target: TIE2/TEK (Homo sapiens, UniProt Q02763); test: HotSpot kinase assay; conditions: read-out: % Enzyme Activity (relative to DMSO control), 10 uM
From the text: as §1

[12] = biological target: CDK1/cyclin E (Homo sapiens, UniProt P06493); test: HotSpot kinase assay; conditions: read-out: % Enzyme Activity (relative to DMSO control), 10 uM
[13] = biological target: ALK4/ACVR1B (Homo sapiens, UniProt P36896); test: HotSpot kinase assay; conditions: read-out: % Enzyme Activity (relative to DMSO control), 10 uM
From the text: as §1

[14] = biological target: PAK6 (Homo sapiens, UniProt Q9NQU5); test: HotSpot kinase assay; conditions: read-out: % Enzyme Activity (relative to DMSO control), 10 uM
From the text: as §1

[15] = biological target: JAK1 (Homo sapiens, UniProt P23458); test: HotSpot kinase assay; conditions: read-out: % Enzyme Activity (relative to DMSO control), 10 uM
From the text: as §1

[16] = biological target: DDR2 (Homo sapiens, UniProt Q16832); test: HotSpot kinase assay; conditions: read-out: % Enzyme Activity (relative to DMSO control), 10 uM
[17] = biological target: ABL2/ARG (Homo sapiens, UniProt P42684); test: HotSpot kinase assay; conditions: read-out: % Enzyme Activity (relative to DMSO control), 10 uM
[18] = biological target: TRKC (Homo sapiens, UniProt Q16288); test: HotSpot kinase assay; conditions: read-out: % Enzyme Activity (relative to DMSO control), 10 uM
Chain of TRKC (Q16288 32-839): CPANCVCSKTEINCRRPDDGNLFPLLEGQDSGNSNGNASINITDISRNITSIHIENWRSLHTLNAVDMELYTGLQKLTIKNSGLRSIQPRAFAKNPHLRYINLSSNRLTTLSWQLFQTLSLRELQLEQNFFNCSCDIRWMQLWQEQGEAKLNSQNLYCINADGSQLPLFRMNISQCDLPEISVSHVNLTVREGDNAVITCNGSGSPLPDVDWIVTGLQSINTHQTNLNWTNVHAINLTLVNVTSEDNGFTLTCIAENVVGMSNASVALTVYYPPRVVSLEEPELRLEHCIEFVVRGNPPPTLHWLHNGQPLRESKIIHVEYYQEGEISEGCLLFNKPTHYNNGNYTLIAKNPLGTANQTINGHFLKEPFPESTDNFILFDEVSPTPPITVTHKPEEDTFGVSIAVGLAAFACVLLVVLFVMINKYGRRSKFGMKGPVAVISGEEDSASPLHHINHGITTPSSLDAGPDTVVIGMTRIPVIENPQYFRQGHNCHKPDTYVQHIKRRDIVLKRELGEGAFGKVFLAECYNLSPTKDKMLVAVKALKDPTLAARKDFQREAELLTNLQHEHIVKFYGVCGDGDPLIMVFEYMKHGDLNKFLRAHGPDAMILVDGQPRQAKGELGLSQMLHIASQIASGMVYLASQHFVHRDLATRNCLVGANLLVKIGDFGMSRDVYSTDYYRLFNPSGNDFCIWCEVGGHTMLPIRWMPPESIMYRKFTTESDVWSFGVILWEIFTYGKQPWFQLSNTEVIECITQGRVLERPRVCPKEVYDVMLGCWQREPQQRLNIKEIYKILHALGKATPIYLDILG
From the text: as §1

[19] = biological target: MARK2/PAR-1Ba (Homo sapiens, UniProt Q7KZI7); test: HotSpot kinase assay; conditions: read-out: % Enzyme Activity (relative to DMSO control), 10 uM
Chain of MARK2/PAR-1Ba (Q7KZI7 whole entry): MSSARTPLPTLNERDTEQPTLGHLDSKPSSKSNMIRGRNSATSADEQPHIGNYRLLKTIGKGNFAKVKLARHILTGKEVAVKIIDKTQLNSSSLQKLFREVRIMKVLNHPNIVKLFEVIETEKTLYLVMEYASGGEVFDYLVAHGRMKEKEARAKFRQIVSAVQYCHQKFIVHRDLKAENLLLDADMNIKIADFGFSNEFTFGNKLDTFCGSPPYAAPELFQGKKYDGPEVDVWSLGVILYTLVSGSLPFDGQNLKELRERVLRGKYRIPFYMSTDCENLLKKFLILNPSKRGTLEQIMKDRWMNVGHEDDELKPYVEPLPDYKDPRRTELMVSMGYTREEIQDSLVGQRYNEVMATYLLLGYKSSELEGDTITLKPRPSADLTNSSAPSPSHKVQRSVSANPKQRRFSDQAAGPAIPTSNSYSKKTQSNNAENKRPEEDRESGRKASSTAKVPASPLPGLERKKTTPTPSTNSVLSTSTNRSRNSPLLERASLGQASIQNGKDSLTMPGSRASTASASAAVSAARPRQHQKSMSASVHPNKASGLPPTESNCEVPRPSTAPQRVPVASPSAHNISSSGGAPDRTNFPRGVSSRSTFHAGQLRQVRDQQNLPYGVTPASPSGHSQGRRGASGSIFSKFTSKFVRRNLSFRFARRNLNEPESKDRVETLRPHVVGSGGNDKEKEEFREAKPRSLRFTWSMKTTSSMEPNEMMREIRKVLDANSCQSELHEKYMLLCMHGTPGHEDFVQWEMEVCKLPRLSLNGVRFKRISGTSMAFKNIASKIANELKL

[20] = biological target: CDK4/cyclin D1 (Homo sapiens, UniProt P11802); test: HotSpot kinase assay; conditions: read-out: % Enzyme Activity (relative to DMSO control), 10 uM
From the text: as §1

[21] = biological target: PKAcb (Homo sapiens, UniProt P22694); test: HotSpot kinase assay; conditions: read-out: % Enzyme Activity (relative to DMSO control), 10 uM
From the text: as §1

[22] = biological target: CDK8/cyclin C (Homo sapiens, UniProt P49336); test: HotSpot kinase assay; conditions: read-out: % Enzyme Activity (relative to DMSO control), 10 uM
From the text: as §1

[23] = biological target: ARK5/NUAK1 (Homo sapiens, UniProt O60285); test: HotSpot kinase assay; conditions: read-out: % Enzyme Activity (relative to DMSO control), 10 uM
Chain of ARK5/NUAK1 (O60285 whole entry): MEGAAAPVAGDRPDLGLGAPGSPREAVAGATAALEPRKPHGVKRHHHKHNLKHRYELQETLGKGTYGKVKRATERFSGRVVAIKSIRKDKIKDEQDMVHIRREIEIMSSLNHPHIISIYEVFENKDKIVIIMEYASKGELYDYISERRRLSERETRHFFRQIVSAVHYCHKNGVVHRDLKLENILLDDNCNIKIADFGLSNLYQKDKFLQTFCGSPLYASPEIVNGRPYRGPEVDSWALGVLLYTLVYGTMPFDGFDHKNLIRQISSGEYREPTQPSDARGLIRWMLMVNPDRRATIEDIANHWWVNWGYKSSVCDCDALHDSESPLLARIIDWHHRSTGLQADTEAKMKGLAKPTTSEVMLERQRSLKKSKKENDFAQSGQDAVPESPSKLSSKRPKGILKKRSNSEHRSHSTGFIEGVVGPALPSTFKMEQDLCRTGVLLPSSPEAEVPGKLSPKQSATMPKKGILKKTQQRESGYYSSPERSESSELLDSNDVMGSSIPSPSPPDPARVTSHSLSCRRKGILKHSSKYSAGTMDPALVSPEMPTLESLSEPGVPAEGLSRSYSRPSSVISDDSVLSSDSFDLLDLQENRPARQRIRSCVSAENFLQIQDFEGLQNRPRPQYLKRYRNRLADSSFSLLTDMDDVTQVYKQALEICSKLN
From the text: as §1

[24] = biological target: RAF1 (Homo sapiens, UniProt P04049); test: HotSpot kinase assay; conditions: read-out: % Enzyme Activity (relative to DMSO control), 10 uM
[25] = biological target: CDK3/cyclin E (Homo sapiens, UniProt Q00526); test: HotSpot kinase assay; conditions: read-out: % Enzyme Activity (relative to DMSO control), 10 uM
From the text: as §1

[26] = biological target: HIPK3 (Homo sapiens, UniProt Q9H422); test: HotSpot kinase assay; conditions: read-out: % Enzyme Activity (relative to DMSO control), 10 uM
[27] = biological target: MST1/STK4 (Homo sapiens, UniProt Q13043); test: HotSpot kinase assay; conditions: read-out: % Enzyme Activity (relative to DMSO control), 10 uM
[28] = biological target: FGR (Homo sapiens, UniProt P09769); test: HotSpot kinase assay; conditions: read-out: % Enzyme Activity (relative to DMSO control), 10 uM
From the text: as §1

[29] = biological target: DYRK1/DYRK1A (Homo sapiens, UniProt Q13627); test: HotSpot kinase assay; conditions: read-out: % Enzyme Activity (relative to DMSO control), 10 uM
[30] = biological target: STK39/STLK3 (Homo sapiens, UniProt Q9UEW8); test: HotSpot kinase assay; conditions: read-out: % Enzyme Activity (relative to DMSO control), 10 uM
From the text: as §1

[31] = biological target: CAMKK2 (Homo sapiens, UniProt Q96RR4); test: HotSpot kinase assay; conditions: read-out: % Enzyme Activity (relative to DMSO control), 10 uM
From the text: as §1

[32] = biological target: SIK1 (Homo sapiens, UniProt P57059); test: HotSpot kinase assay; conditions: read-out: % Enzyme Activity (relative to DMSO control), 10 uM
[33] = biological target: NEK9 (Homo sapiens, UniProt Q8TD19); test: HotSpot kinase assay; conditions: read-out: % Enzyme Activity (relative to DMSO control), 10 uM
[34] = biological target: PAK5 (Homo sapiens, UniProt Q9P286); test: HotSpot kinase assay; conditions: read-out: % Enzyme Activity (relative to DMSO control), 10 uM
From the text: as §1

[35] = biological target: STK21/CIT (Homo sapiens, UniProt O14578); test: HotSpot kinase assay; conditions: read-out: % Enzyme Activity (relative to DMSO control), 10 uM
From the text: as §1

[36] = biological target: MARK4 (Homo sapiens, UniProt Q96L34); test: HotSpot kinase assay; conditions: read-out: % Enzyme Activity (relative to DMSO control), 10 uM
From the text: as §1

[37] = biological target: FGFR3 (Homo sapiens, UniProt P22607); test: HotSpot kinase assay; conditions: read-out: % Enzyme Activity (relative to DMSO control), 10 uM
From the text: as §1

[38] = biological target: EPHA4 (Homo sapiens, UniProt P54764); test: HotSpot kinase assay; conditions: read-out: % Enzyme Activity (relative to DMSO control), 10 uM
From the text: as §1

[39] = tested on: hALPK1-KI mice; test: Retinal astrocyte activation (GFAP); conditions: individual animals

SMILES: C#C[C@@](C)(c1ccc(Cl)cc1)c1csc(NC(=O)c2c(F)cc(N3CCNCC3)cc2F)n1 (stereo in doubt) [DF-003]
- general immunosuppression [1]: no general immunosuppression was observed
- remaining activity at 10 µM [2]: 12.7%
- remaining activity at 10 µM [3]: 21.7%
- remaining activity at 10 µM [4]: 68.8%
- remaining activity at 10 µM [5]: 69.2%
- remaining activity at 10 µM [6]: 73.7%
- remaining activity at 10 µM [7]: 74%
- remaining activity at 10 µM [8]: 75.5%
- remaining activity at 10 µM [9]: 75.9%
- remaining activity at 10 µM [10]: 77.3%
- remaining activity at 10 µM [11]: 79.5%
- remaining activity at 10 µM [12]: 83.6%
- remaining activity at 10 µM [13]: 83.8%
- remaining activity at 10 µM [14]: 84.2%
- remaining activity at 10 µM [15]: 84.6%
- remaining activity at 10 µM [16]: 84.6%
- remaining activity at 10 µM [17]: 89.2%
- remaining activity at 10 µM [18]: 91%
- remaining activity at 10 µM [19]: 91.2%
- remaining activity at 10 µM [20]: 91.3%
- remaining activity at 10 µM [21]: 91.6%
- remaining activity at 10 µM [22]: 92.9%
- remaining activity at 10 µM [23]: 93.2%
- remaining activity at 10 µM [24]: 94.2%
- remaining activity at 10 µM [25]: 94.6%
- remaining activity at 10 µM [26]: 96.7%
- remaining activity at 10 µM [27]: 97.1%
- remaining activity at 10 µM [28]: 97.8%
- remaining activity at 10 µM [29]: 98.5%
- remaining activity at 10 µM [30]: 98.7%
- remaining activity at 10 µM [31]: 98.9%
- remaining activity at 10 µM [32]: 99.8%
- remaining activity at 10 µM [33]: 100%
- remaining activity at 10 µM [34]: 104%
- remaining activity at 10 µM [35]: 108%
- remaining activity at 10 µM [36]: 110%
- remaining activity at 10 µM [37]: 136%
- remaining activity at 10 µM [38]: 161%
- Length of retina nerve fiber layer with positive GFAP staining (%) ([39]; DF-003 3mpk): 5.89%
- Length of retina nerve fiber layer with positive GFAP staining (%) ([39]; DF-003 3mpk, 3 mg/kg): *36.72% and 4.72% and 11.49% and 5.82% and 8.23% and 8.01%
- Length of retina nerve fiber layer with positive GFAP staining (%) ([39]; DF-003 5mpk, 5 mg/kg): 0.34% and 3.64% and 11.44% and 5.19% and 4.22% and 29.43% and 8.01%
